Drawing on patent US20250179059A1 (The Regents of the University of California, priority 2021, published 2025), this text covers IC50 and GI50 for 23 compounds.

Experiment [1] addresses T1, human BRD4 bromodomain II (Homo sapiens, UniProt O60885).
T1 construct: human BRD4 bromodomain II [based on Genbank NM_058243, residues 349-460]; host or cells: E. coli
The experiment can be described thus: Bromodomain binding assay (AlphaScreen), BRD4 BDII. The following applies: BRD4 BDII AlphaScreen assay; read-out: BRD4 BD2 IC50. The gist of the method:
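AlphaScreen competition with biotinylated H4 peptide (aa 1-21, K5/K8/K12/K16Ac), using nickel-chelate acceptor and streptavidin donor beads. Targets were His6-BRD4 BDI (44-170) or BDII (349-460), with a 30 min compound preincubation over a 10-point 3-fold series. IC50 was fitted from percentage peptide binding.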

Experiment [2] deals with human SKM-1 acute myeloid leukemia cells. Description: SKM-1 antiproliferation cell-based assay (ATPlite). The following applies: Homo sapiens, SKM-1, SKM-1 antiproliferation assay. The gist of the method:
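Log-phase cells in RPMI 1640/15% FBS were seeded at 34722 cells/mL and exposed for 4 days to nine-concentration DMSO serial dilutions in triplicate. Viability was read as ATP luminescence (ATPlite 1step), and IC50 values came from variable-slope non-linear regression.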

A word on the IC50: it is the point on the concentration scale where inhibition reaches its midpoint. What is called GI50 is the concentration giving 50% growth inhibition. High values mean lower sensitivity of the cells, low ones greater sensitivity of the cells. For the compound `Cc1ncc(-c2nccc(-c3ccc(-n4ccn(C)c4=O)c(Cl)c3)c2O)cc1N1CCN(C(C)(C)C)CC1` [Example 993, 1-(4-(5′-(4-(tert-Butyl)piperazin-1-yl)-3-hydroxy-6′-methyl-[2,3′-bipyridin]-4-yl)-2-chlorophenyl)-3-methyl-1H-imidazol-2(3H)-one], the IC50 in experiment [1] was 10 to 100 nM. In addition, the concentration for 50% growth inhibition (GI50) in experiment [2] fell in the range of 0.3 to 30 nM.

Consider `Cc1cc(-c2ccc(-n3ccn(C)c3=O)c(Cl)c2)c(O)c(-c2cnc(N(C)C)c(N3CCC4(CCCN4C(C)C)C3)c2)n1` (stereo not shown) [Example 994, 1-(2-Chloro-4-(6′-(dimethylamino)-3-hydroxy-5′-(1-isopropyl-1,7-diazaspiro[4.4]nonan-7-yl)-6-methyl-[2,3′-bipyridin]-4-yl)phenyl)-3-methyl-1H-imidazol-2(3H)-one], for which the IC50 in experiment [1] fell in the range of 1 to 10 nM. The compound further yielded a concentration for 50% growth inhibition (GI50) in experiment [2] of 0.3 to 30 nM.

As to `Cc1cc(-c2ccc(-n3ccn(C)c3=O)c(Cl)c2)c(O)c(-c2ccnc(N3CC[C@](C)(O)C3)c2)n1` [Example 995, (S)-1-(2-chloro-4-(3-hydroxy-2′-(3-hydroxy-3-methylpyrrolidin-1-yl)-6-methyl-[2,4′-bipyridin]-4-yl)phenyl)-3-methyl-1H-imidazol-2(3H)-one], in experiment [1], the half-maximal inhibitory concentration (IC50) lay in the range of 1 to 10 nM. This compound yielded a concentration for 50% growth inhibition (GI50) in experiment [2] of 0.3 to 30 nM.

Take `Cc1cc(-c2ccc(-n3ccn(C)c3=O)c(Cl)c2)c(O)c(-c2ccnc(N3CC[C@@](C)(O)C3)c2)n1` [Example 996, (R)-1-(2-chloro-4-(3-hydroxy-2′-(3-hydroxy-3-methylpyrrolidin-1-yl)-6-methyl-[2,4′-bipyridin]-4-yl)phenyl)-3-methyl-1H-imidazol-2(3H)-one]: the IC50 in experiment [1] fell in the range of 1 to 10 nM. Further, the GI50 in experiment [2] lay in the range of 0.3 to 30 nM.

On to `COc1ncc(-c2nc(C)cc(-c3ccc(-n4ccn(C)c4=O)c(F)c3)c2O)cc1N1CCN(C(C)(C)C)CC1` [Example 997, 1-(4-(5′-(4-(tert-butyl)piperazin-1-yl)-3-hydroxy-6′-methoxy-6-methyl-[2,3′-bipyridin]-4-yl)-2-fluorophenyl)-3-methyl-1H-imidazol-2(3H)-one], for which the IC50 in experiment [1] was 1 to 10 nM. Besides, in experiment [2], the 50% growth inhibitory concentration (GI50) was in the range of 0.3 to 30 nM.

As for `Cc1cc(-c2ccc(-n3ccn(C)c3=O)c(Cl)c2)c(O)c(-c2ccnc(N3CCN(C(C)(C)C)CC3)c2)n1` [Example 998, 1-(4-(2′-(4-(tert-butyl)piperazin-1-yl)-3-hydroxy-6-methyl-[2,4′-bipyridin]-4-yl)-2-chlorophenyl)-3-methyl-1H-imidazol-2(3H)-one], in experiment [1], the IC50 was in the range of 1 to 10 nM. In experiment [2], this compound had a GI50 of 0.3 to 30 nM.

Regarding `Cc1cc(-c2ccc(-n3ccn(C)c3=O)c(Cl)c2)c(O)c(-c2cc(Cl)cc(N3CCN(C(C)(C)C)CC3)c2)n1` [Example 999, 1-(4-(2-(3-(4-(tert-butyl)piperazin-1-yl)-5-chlorophenyl)-3-hydroxy-6-methylpyridin-4-yl)-2-chlorophenyl)-3-methyl-1H-imidazol-2(3H)-one], in experiment [1], the concentration for half-maximal inhibition (IC50) lay within 1 to 10 nM. The compound also gave a concentration for 50% growth inhibition (GI50) in experiment [2] of 0.3 to 30 nM.

As for `Cc1cc(-c2ccc(-n3ccn(C)c3=O)c(Cl)c2)c(O)c(-c2ccc(F)c(N3CCN(C(C)(C)C)CC3)c2)n1` [Example 1000, 1-(4-(2-(3-(4-(tert-butyl)piperazin-1-yl)-4-fluorophenyl)-3-hydroxy-6-methylpyridin-4-yl)-2-chlorophenyl)-3-methyl-1H-imidazol-2(3H)-one], the 50% inhibitory concentration (IC50) in experiment [1] was 1 to 10 nM. Also, the GI50 in experiment [2] lay within 0.3 to 30 nM.

With `Cc1cc(-c2ccc(-n3ccn(C)c3=O)c(F)c2)c(O)c(-c2cnc(C)c(N3CCN(C(C)(C)C)CC3)c2)n1` [Example 1001, 1-(4-(5′-(4-(tert-butyl)piperazin-1-yl)-3-hydroxy-6,6′-dimethyl-[2,3′-bipyridin]-4-yl)-2-fluorophenyl)-3-methyl-1H-imidazol-2(3H)-one], the half-maximal inhibitory concentration (IC50) in experiment [1] lay within 1 to 10 nM. Moreover, the GI50 in experiment [2] lay in the range of 0.3 to 30 nM.

Take `Cc1cc(-c2ccc(-n3ccn(C)c3=O)c(Cl)c2)c(O)c(-c2cc(N3CCN(C(C)(C)C)CC3)n3ccnc3c2)n1` [Example 1002, 1-(4-(2-(5-(4-(tert-butyl)piperazin-1-yl)imidazo[1,2-a]pyridin-7-yl)-3-hydroxy-6-methylpyridin-4-yl)-2-chlorophenyl)-3-methyl-1H-imidazol-2(3H)-one]: the IC50 in experiment [1] lay in the range of 1 to 10 nM. Also, the GI50 in experiment [2] lay within 0.3 to 30 nM.

As to `Cc1cc(-c2ccc(-n3ccn(C)c3=O)c(F)c2)c(O)c(-c2cccc(N3CCN(C(C)(C)C)CC3)c2)n1` [Example 1003, 1-(4-(2-(3-(4-(tert-butyl)piperazin-1-yl)phenyl)-3-hydroxy-6-methylpyridin-4-yl)-2-fluorophenyl)-3-methyl-1H-imidazol-2(3H)-one], the IC50 in experiment [1] was 1 to 10 nM. The same compound came in with a GI50 in experiment [2] of 0.3 to 30 nM.

Consider `Cc1cc(-c2ccc(-n3ccn(C)c3=O)c(Cl)c2)c(O)c(-c2cncc(N3CCN(C(C)(C)C)CC3)c2)n1` [Example 1004, 1-(4-(5′-(4-(tert-butyl)piperazin-1-yl)-3-hydroxy-6-methyl-[2,3′-bipyridin]-4-yl)-2-chlorophenyl)-3-methyl-1H-imidazol-2(3H)-one], for which the 50% inhibitory concentration (IC50) in experiment [1] lay in the range of 1 to 10 nM. Moreover, the GI50 in experiment [2] fell in the range of 0.3 to 30 nM.

For the compound `COc1ncc(-c2nccc(-c3ccc(-n4ccn(C)c4=O)c(Cl)c3)c2O)cc1N1CCN(C(C)(C)C)CC1` [Example 1005, 1-(4-(5′-(4-(tert-butyl)piperazin-1-yl)-3-hydroxy-6′-methoxy-[2,3′-bipyridin]-4-yl)-2-chlorophenyl)-3-methyl-1H-imidazol-2(3H)-one], in experiment [1], the IC50 lay within 1 to 10 nM. For the same compound, in experiment [2], the 50% growth inhibitory concentration (GI50) fell in the range of 0.3 to 30 nM.

For the compound `CC(=O)Nc1ccc(-c2cc(C)nc(-c3cccc(N4CCN(C(C)(C)C)CC4)c3)c2O)cc1Cl` [Example 1007, N-(4-(2-(3-(4-(tert-butyl)piperazin-1-yl)phenyl)-3-hydroxy-6-methylpyridin-4-yl)-2-chlorophenyl)acetamide], the concentration for half-maximal inhibition (IC50) in experiment [1] was 1 to 10 nM. This compound also yielded a GI50 in experiment [2] of 0.3 to 30 nM.

With `[2H]C([2H])([2H])C(=O)Nc1ccc(-c2cc(C)nc(-c3cccc(N4CCN(C(C)(C)C)CC4)c3)c2O)cc1Cl` [Example 1008, N-(4-(2-(3-(4-(tert-butyl)piperazin-1-yl)phenyl)-3-hydroxy-6-methylpyridin-4-yl)-2-chlorophenyl)-2,2,2-trideuteroacetamide], the IC50 in experiment [1] lay in the range of 1 to 10 nM. In experiment [2], this compound had a 50% growth inhibitory concentration (GI50) of 0.3 to 30 nM.

As for `Cc1cc(-c2ccc(-n3ccn(C)c3=O)c(Cl)c2)c(O)c(-c2cc(N3CCN(C(C)(C)C)CC3)n(C)c(=O)c2)n1` [Example 1009, 6′-(4-(tert-butyl)piperazin-1-yl)-4-(3-chloro-4-(3-methyl-2-oxo-2,3-dihydro-1H-imidazol-1-yl)phenyl)-3-hydroxy-1′,6-dimethyl-[2,4′-bipyridin]-2′(1′H)-one], the IC50 in experiment [1] lay within 1 to 10 nM. The GI50 in experiment [2] lay in the range of 0.3 to 30 nM.

Regarding `Cc1cc(-c2ccc(-n3ccn(C)c3=O)c(Cl)c2)c(O)c(-c2cc(Cl)c(F)c(N3CCN(C(C)(C)C)CC3)c2)n1` [Example 1010, 1-(4-(2-(3-(4-(tert-butyl)piperazin-1-yl)-5-chloro-4-fluorophenyl)-3-hydroxy-6-methylpyridin-4-yl)-2-chlorophenyl)-3-methyl-1H-imidazol-2(3H)-one], the IC50 in experiment [1] was 0.01 to 1 nM. This compound also came in with a GI50 in experiment [2] of 0.3 to 30 nM.

Take `Cc1cc(-c2ccc(-n3ccn(C)c3=O)c(Cl)c2)c(O)c(-c2cc(N3CCN(C(C)(C)C)CC3)c(=O)n(C)c2)n1` [Example 1011, 5′-(4-(tert-butyl)piperazin-1-yl)-4-(3-chloro-4-(3-methyl-2-oxo-2,3-dihydro-1H-imidazol-1-yl)phenyl)-3-hydroxy-1′,6-dimethyl-[2,3′-bipyridin]-6′(1′H)-one]: the IC50 in experiment [1] was 10 to 100 nM. In addition, in experiment [2], the GI50 lay in the range of 0.3 to 30 nM.

Turning to `Cc1cc(-c2ccc(-n3ccn(C)c3=O)c(C)c2)c(O)c(-c2cccc(N3CCN(C(C)(C)C)CC3)c2)n1` [Example 1012, 1-(4-(2-(3-(4-(tert-butyl)piperazin-1-yl)phenyl)-3-hydroxy-6-methylpyridin-4-yl)-2-methylphenyl)-3-methyl-1H-imidazol-2(3H)-one], the IC50 in experiment [1] was in the range of 1 to 10 nM. The compound further came in with a GI50 in experiment [2] of 0.3 to 30 nM.

For the compound `Cc1cc(-c2ccc(-n3ccn(C)c3=O)c(Cl)c2)c(O)c(-c2ccc(Cl)c(N3CCN(C(C)(C)C)CC3)c2)n1` [Example 1013, 1-(4-(2-(3-(4-(tert-butyl)piperazin-1-yl)-4-chlorophenyl)-3-hydroxy-6-methylpyridin-4-yl)-2-chlorophenyl)-3-methyl-1H-imidazol-2(3H)-one], in experiment [1], the IC50 was 1 to 10 nM. This compound came in with a GI50 in experiment [2] of 0.3 to 30 nM.

Turning to `Cc1cc(-c2ccc(-n3ccn(C)c3=O)c(Cl)c2)c(O)c(-c2cc(F)cc(N3CCN(C(C)(C)C)CC3)c2)n1` [Example 1014, 1-(4-(2-(3-(4-(tert-butyl)piperazin-1-yl)-5-fluorophenyl)-3-hydroxy-6-methylpyridin-4-yl)-2-chlorophenyl)-3-methyl-1H-imidazol-2(3H)-one], the IC50 in experiment [1] fell in the range of 0.01 to 1 nM. For the same compound, the GI50 in experiment [2] fell in the range of 0.3 to 30 nM.

Consider `COc1ncc(-c2nc(C)cc(-c3ccc(-n4ccn(C)c4=O)c(C)c3)c2O)cc1N1CCN(C(C)(C)C)CC1` [Example 1015, 1-(4-(5′-(4-(tert-butyl)piperazin-1-yl)-3-hydroxy-6′-methoxy-6-methyl-[2,3′-bipyridin]-4-yl)-2-methylphenyl)-3-methyl-1H-imidazol-2(3H)-one], for which, in experiment [1], the IC50 is 1 to 10 nM. The concentration for 50% growth inhibition (GI50) in experiment [2] lay in the range of 0.3 to 30 nM.

On to `Cc1cc(-c2cccc(N3CCN(C(C)(C)C)CC3)c2)c(O)c(-c2ccc(-n3ccn(C)c3=O)c(Cl)c2)c1` [Example 1016, 1-(3″-(4-(tert-butyl)piperazin-1-yl)-3-chloro-2′-hydroxy-5′-methyl-[1,1′:3′,1″-terphenyl]-4-yl)-3-methyl-1H-imidazol-2(3H)-one], for which, in experiment [1], the half-maximal inhibitory concentration (IC50) was 0.01 to 1 nM. The compound further came in with a GI50 in experiment [2] of 0.3 to 30 nM.
